How the values were obtained:
[1] = test system: osteoclast precursors; assay: cells; assay type: cell-based; conditions: read-out: Osteoclast assay
[2] = test system: M-NFS-60 cells; assay: cells; conditions: 67 h, read-out: M-NFS-60 cell proliferation
Method: M-NFS-6 Cell Proliferation Assay
A serial dilution of test compound was dispensed into a 384-well black clear bottom plate (Corning, Corning, N.Y.). Two thousand five hundred cells were added per well in 50 μL complete growth medium. […] IC50 values were calculated from a series of percent inhibition values determined at a range of inhibitor concentrations using software routines as implemented in the GraphPad Prism software package.

[3] = test system: phospho-FMS in THP-1 cells; assay: cells; conditions: Homo sapiens, THP-1, read-out: pFMS inhibition in THP-1 cells
Method: In a separate 96 well black clear bottom plate, one hundred and fifty thousand THP-1 cells were added per well in 100 μL in assay medium. Fifty microliters of diluted compound was then added to the cells. […] Lysates were prepared and used to perform the phospho-FMS ELISA as described by the manufacturer (catalog #DYC3268, R & D Systems, Minneapolis, Minn.). GraphPad Prism was used to calculate IC50 values obtained from data generated from the ELISA assay.

[4] = biological target: T1, unphosphorylated c-FMS kinase (uFMS, Seq. ID no. 1) (Homo sapiens, UniProt P07333); assay: biochemical
T1 sequence (P07333 538-972): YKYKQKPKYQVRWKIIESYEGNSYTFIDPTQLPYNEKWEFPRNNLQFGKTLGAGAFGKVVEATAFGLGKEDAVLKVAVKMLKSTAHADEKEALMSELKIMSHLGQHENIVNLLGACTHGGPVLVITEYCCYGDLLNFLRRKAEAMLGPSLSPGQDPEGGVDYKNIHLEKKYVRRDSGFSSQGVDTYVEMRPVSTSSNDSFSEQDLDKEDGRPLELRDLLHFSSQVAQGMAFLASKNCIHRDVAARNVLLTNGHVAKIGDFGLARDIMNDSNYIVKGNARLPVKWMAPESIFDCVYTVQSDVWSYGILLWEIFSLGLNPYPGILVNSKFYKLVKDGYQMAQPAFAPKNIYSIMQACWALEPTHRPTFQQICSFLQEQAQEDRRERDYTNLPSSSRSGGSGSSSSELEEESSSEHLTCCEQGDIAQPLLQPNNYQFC

[5] = biological target: unphosphorylated c-KIT kinase (uKIT, Seq. ID no. 2) (Homo sapiens, UniProt P10721); assay: biochemical
Sequence of unphosphorylated c-KIT kinase (uKIT, Seq. ID no. 2) (P10721 with tags, fused parts or gaps): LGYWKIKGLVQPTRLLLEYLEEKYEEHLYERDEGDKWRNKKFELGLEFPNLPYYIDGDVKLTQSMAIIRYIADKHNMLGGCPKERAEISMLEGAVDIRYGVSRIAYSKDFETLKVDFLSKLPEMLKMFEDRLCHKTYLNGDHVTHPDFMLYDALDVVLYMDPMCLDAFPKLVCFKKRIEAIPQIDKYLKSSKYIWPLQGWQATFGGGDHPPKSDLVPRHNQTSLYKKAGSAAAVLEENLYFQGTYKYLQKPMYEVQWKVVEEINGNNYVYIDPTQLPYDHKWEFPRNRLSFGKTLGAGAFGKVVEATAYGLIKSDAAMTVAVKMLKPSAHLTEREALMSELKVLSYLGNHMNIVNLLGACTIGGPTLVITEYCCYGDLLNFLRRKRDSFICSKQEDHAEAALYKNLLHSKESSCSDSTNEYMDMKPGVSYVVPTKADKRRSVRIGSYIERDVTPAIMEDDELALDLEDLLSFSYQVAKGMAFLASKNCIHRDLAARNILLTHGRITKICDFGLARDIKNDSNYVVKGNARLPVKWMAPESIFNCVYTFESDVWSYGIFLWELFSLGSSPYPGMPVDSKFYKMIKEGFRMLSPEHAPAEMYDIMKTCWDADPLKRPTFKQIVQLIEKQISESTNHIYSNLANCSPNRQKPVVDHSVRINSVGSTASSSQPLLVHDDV
Method: uKit kinase (Seq. ID No. 2) Assay
In this assay, the oxidation of NADH (thus the decrease at A340 nm) was continuously monitored spectrophometrically. […] The inhibition reaction was started by mixing serial diluted test compound with the above reaction mixture. The absorption at 340 nm was monitored continuously for 4 hours at 30° C. on Synergy 2 plate reader (BioTech).

[6] = biological target: unphosphorylated PDGFRβ kinase (uPDGFRβ, Seq. ID No. 3) (Homo sapiens, UniProt P09619); assay: biochemical
Sequence of unphosphorylated PDGFRβ kinase (uPDGFRβ, Seq. ID No. 3) (P09619 557-1106): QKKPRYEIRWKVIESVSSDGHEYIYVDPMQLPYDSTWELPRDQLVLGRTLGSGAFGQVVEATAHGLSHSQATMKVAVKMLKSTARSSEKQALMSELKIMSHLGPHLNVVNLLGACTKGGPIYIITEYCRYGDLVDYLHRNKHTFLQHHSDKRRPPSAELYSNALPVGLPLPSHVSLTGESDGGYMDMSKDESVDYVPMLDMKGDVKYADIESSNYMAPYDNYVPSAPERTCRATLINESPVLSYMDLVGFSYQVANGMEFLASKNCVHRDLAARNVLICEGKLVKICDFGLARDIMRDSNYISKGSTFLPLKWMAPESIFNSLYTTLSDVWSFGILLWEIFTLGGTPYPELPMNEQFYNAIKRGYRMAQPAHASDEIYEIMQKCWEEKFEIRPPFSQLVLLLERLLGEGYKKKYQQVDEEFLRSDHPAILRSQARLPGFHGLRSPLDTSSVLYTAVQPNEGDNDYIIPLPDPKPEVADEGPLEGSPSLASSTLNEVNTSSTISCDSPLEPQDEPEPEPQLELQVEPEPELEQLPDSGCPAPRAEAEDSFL
Method: Unphosphorylated PDGFRβ (uPDGFRβ) Kinase (Seq. ID No. 3) Assay
In this assay, the oxidation of NADH (thus the decrease at A340 nm) was continuously monitored spectrophometrically. […] The inhibition reaction was started by mixing serial diluted test compound with the above reaction mixture. The absorption at 340 nm was monitored continuously for 4 h at 30° C. on a Polarstar Optima or Synergy 2 plate reader. The reaction rate was calculated using the 1.5 to 2.5 h time frame. Percent inhibition was obtained by comparison of reaction rate with that of a control (i.e. with no test compound). IC50 values were calculated from a series of percent inhibition values determined at a range of inhibitor concentrations using software routines as implemented in the GraphPad Prism software package.

[7] = uFMS, enzymatic assay, ATP 500 μM
[8] = uKIT, enzymatic assay, ATP 2000 μM
[9] = uPDGFRb, enzymatic assay, ATP 500 μM

| SMILES | IC50 [1] | IC50 [3] | IC50 [4, 7] | IC50 [5, 8] | IC50 [6, 9] | IC50 ([4]; IC50 (nM) uFMS, Table 3) | IC50 ([5]; IC50 (nM) uKIT, Table 3) | IC50 ([6]; IC50 (nM) uPDGFRβ, Table 3) | IC50 [2] |
| --- | --- | --- | --- | --- | --- | --- | --- | --- | --- |
| Cc1cn(-c2cc(Oc3ccc(NC(=O)NC(=O)C(C)(C)C)nc3)ccn2)cn1 [Example 99, N-((5-((2-(4-methyl-1H-imidazol-1-yl)pyridin-4-yl)oxy)pyridin-2-yl)carbamoyl)pivalamide] | 10 to 100 nM | < 10 nM | < 10 nM | > 1000 nM | 100 to 1000 nM | 4 nM | 4000 nM | 366 nM | 10 to 100 nM |
| COC(C)(C)C(=O)NC(=O)Nc1ccc(Oc2ccnc(-n3cnc(C)c3)c2)cn1 [Example 130, 2-methoxy-2-methyl-N-((5-((2-(4-methyl-1H-imidazol-1-yl)pyridin-4-yl)oxy)pyridin-2-yl)carbamoyl)propanamide] | 10 to 100 nM | < 10 nM | 10 to 100 nM | > 1000 nM | > 1000 nM | – | – | – | 10 to 100 nM |
| COC(C)(C)C(=O)NC(=O)Nc1ccc(Oc2ccnc(-c3ccnc(C)c3)c2)cn1 [Example 160, 2-methoxy-2-methyl-N-((5-((2′-methyl-[2,4′-bipyridin]-4-yl)oxy)pyridin-2-yl)carbamoyl)propanamide] | 10 to 100 nM | < 10 nM | < 10 nM | > 1000 nM | > 1000 nM | – | – | – | < 10 nM |
| Cc1nc(NC(=O)NC(=O)C(C)(C)C)ccc1Oc1ccnc(-c2ccc(C#N)nc2)c1 [Example 107, N-((5-((6′-cyano-[2,3′-bipyridin]-4-yl)oxy)-6-methylpyridin-2-yl)carbamoyl)pivalamide] | 10 to 100 nM | 10 to 100 nM | 10 to 100 nM | > 1000 nM | > 1000 nM | – | – | – | 100 to 1000 nM |
| Cc1cc(-c2cc(Oc3ccc(NC(=O)NC(=O)C(C)(C)C)nc3C)ccn2)ccn1 [Example 56, N-((6-methyl-5-((2′-methyl-[2,4′-bipyridin]-4-yl)oxy)pyridin-2-yl)carbamoyl)pivalamide] | 10 to 100 nM | < 10 nM | – | > 1000 nM | > 1000 nM | – | 3100 nM | 2800 nM | – |
| CCc1nc(NC(=O)NC(=O)C2(C)CCOCC2)ccc1Oc1ccnc(-c2cnn(C)c2)c1 [Example 167, N-((6-ethyl-5-((2-(1-methyl-1H-pyrazol-4-yl)pyridin-4-yl)oxy)pyridin-2-yl)carbamoyl)-4-methyltetrahydro-2H-pyran-4-carboxamide] | 100 to 1000 nM | 10 to 100 nM | 10 to 100 nM | > 1000 nM | > 1000 nM | – | – | – | 100 to 1000 nM |
| CCC(C)(C)C(=O)NC(=O)Nc1ccc(Oc2ccnc(-c3cnn(C)c3)c2)c(C)n1 [Example 69, 2,2-dimethyl-N-((6-methyl-5-((2-(1-methyl-1H-pyrazol-4-yl)pyridin-4-yl)oxy)pyridin-2-yl)carbamoyl)butanamide] | 10 to 100 nM | 10 to 100 nM | < 10 nM | 100 to 1000 nM | 100 to 1000 nM | – | – | – | < 10 nM |
| Cn1cc(-c2cc(Oc3ccc(NC(=O)NC(=O)C45CC6CC(CC(C6)C4)C5)nc3)ccn2)cn1 [Example 38, N-((5-((2-(1-methyl-1H-pyrazol-4-yl)pyridin-4-yl)oxy)pyridin-2-yl)carbamoyl)adamantane-1-carboxamide] | 10 to 100 nM | 10 to 100 nM | < 10 nM | 10 to 100 nM | < 10 nM | – | – | – | 10 to 100 nM |
| CCOC(C)(C)C(=O)NC(=O)Nc1ccc(Oc2ccnc(-c3ccnc(C)c3)c2)cn1 [Example 161, 2-ethoxy-2-methyl-N-((5-((2′-methyl-[2,4′-bipyridin]-4-yl)oxy)pyridin-2-yl)carbamoyl)propanamide] | 10 to 100 nM | 10 to 100 nM | < 10 nM | > 1000 nM | > 1000 nM | – | – | – | 10 to 100 nM |
| Cc1nc(NC(=O)NC(=O)CC(C)(C)C(F)(F)F)ccc1Oc1ccnc(-c2cnn(C)c2)c1 [Example 47, 4,4,4-trifluoro-3,3-dimethyl-N-((6-methyl-5-((2-(1-methyl-1H-pyrazol-4-yl)pyridin-4-yl)oxy)pyridin-2-yl)carbamoyl)butanamide] | 10 to 100 nM | 10 to 100 nM | – | – | – | – | – | – | – |
| Cn1cc(-c2cc(Oc3ccc(NC(=O)NC(=O)CC(C)(C)C(F)(F)F)nc3)ccn2)cn1 [Example 48, 4,4,4-trifluoro-3,3-dimethyl-N-((5-((2-(1-methyl-1H-pyrazol-4-yl)pyridin-4-yl)oxy)pyridin-2-yl)carbamoyl)butanamide] | 10 to 100 nM | < 10 nM | < 10 nM | < 10 nM | – | – | – | – | 10 to 100 nM |
| Cc1ccc(-c2cc(Oc3ccc(NC(=O)NC(=O)C(C)(C)C)nc3C)ccn2)cn1 [Example 39, N-((6-methyl-5-((6′-methyl-[2,3′-bipyridin]-4-yl)oxy)pyridin-2-yl)carbamoyl)pivalamide] | 10 to 100 nM | 10 to 100 nM | – | – | – | – | – | – | – |
| Cc1cc(-c2cc(Oc3ccc(NC(=O)NC(=O)C(C)(C)C)nc3C)ccn2)on1 [Example 76, N-((6-methyl-5-((2-(3-methylisoxazol-5-yl)pyridin-4-yl)oxy)pyridin-2-yl)carbamoyl)pivalamide] | 10 to 100 nM | < 10 nM | – | > 1000 nM | > 1000 nM | – | – | – | – |

Further lines, with some results ahead:

| IC50 [1] | IC50 [3] | IC50 [4, 7] | IC50 [5, 8] | IC50 [6, 9] | IC50 ([4]; IC50 (nM) uFMS, Table 3) | IC50 ([5]; IC50 (nM) uKIT, Table 3) | IC50 ([6]; IC50 (nM) uPDGFRβ, Table 3) | SMILES | IC50 [2] |
| --- | --- | --- | --- | --- | --- | --- | --- | --- | --- |
| < 10 nM | 10 to 100 nM | < 10 nM | > 1000 nM | > 1000 nM | – | – | – | CC(C)(C)C(=O)NC(=O)Nc1ccc(Oc2ccnc(-c3cncs3)c2)cn1 [Example 125, N-((5-((2-(thiazol-5-yl)pyridin-4-yl)oxy)pyridin-2-yl)carbamoyl)pivalamide] | 100 to 1000 nM |
| 10 to 100 nM | 10 to 100 nM | < 10 nM | 100 to 1000 nM | 10 to 100 nM | – | – | – | Cn1cc(-c2cc(Oc3ccc(NC(=O)NC(=O)C(C)(C)C(F)(F)F)nc3)ccn2)cn1 [Example 35, 3,3,3-trifluoro-2,2-dimethyl-N-((5-((2-(1-methyl-1H-pyrazol-4-yl)pyridin-4-yl)oxy)pyridin-2-yl)carbamoyl)propanamide] | 10 to 100 nM |
| < 10 nM | < 10 nM | < 10 nM | > 1000 nM | 100 to 1000 nM | – | – | – | Cc1ccc(-c2cc(Oc3ccc(NC(=O)NC(=O)C(C)(C)C)nc3)ccn2)cn1 [Example 73, N-((5-((6′-methyl-[2,3′-bipyridin]-4-yl)oxy)pyridin-2-yl)carbamoyl)pivalamide] | 10 to 100 nM |
| < 10 nM | < 10 nM | < 10 nM | > 1000 nM | > 1000 nM | – | – | – | Cn1cnc(-c2cc(Oc3ccc(NC(=O)NC(=O)C(C)(C)C)nc3)ccn2)c1 [Example 104, N-((5-((2-(1-methyl-1H-imidazol-4-yl)pyridin-4-yl)oxy)pyridin-2-yl)carbamoyl)pivalamide] | < 10 nM |
| < 10 nM | < 10 nM | < 10 nM | 100 to 1000 nM | 100 to 1000 nM | – | – | – | CC(C)C(=O)NC(=O)Nc1ccc(Oc2ccnc(-c3ccc(C4CCN(C)CC4)cc3)c2)cn1 [Example 75, N-((5-((2-(4-(1-methylpiperidin-4-yl)phenyl)pyridin-4-yl)oxy)pyridin-2-yl)carbamoyl)isobutyramide] | < 10 nM |
| < 10 nM | 10 to 100 nM | < 10 nM | 10 to 100 nM | 100 to 1000 nM | – | – | – | Cc1nc(NC(=O)NC(=O)C2CCC(F)(F)CC2)ccc1Oc1ccnc(-c2cnn(C)c2)c1 [Example 12, 4,4-difluoro-N-((6-methyl-5-((2-(1-methyl-1H-pyrazol-4-yl)pyridin-4-yl)oxy)pyridin-2-yl)carbamoyl)cyclohexanecarboxamide] | < 10 nM |
| < 10 nM | < 10 nM | – | – | – | – | – | – | Cc1cc(-c2cc(Oc3ccc(NC(=O)NC(=O)C(C)C)nc3C)ccn2)ccn1 [Example 79, N-((6-methyl-5-((2′-methyl-[2,4′-bipyridin]-4-yl)oxy)pyridin-2-yl)carbamoyl)isobutyramide] | – |
| < 10 nM | < 10 nM | < 10 nM | – | 10 to 100 nM | – | – | – | Cn1cc(-c2cc(Oc3ccc(NC(=O)NC(=O)[C@H]4C[C@](C)(F)C4)nc3)ccn2)cn1 [Example 1, trans-3-fluoro-3-methyl-N-((5-((2-(1-methyl-1H-pyrazol-4-yl)pyridin-4-yl)oxy)pyridin-2-yl)carbamoyl)cyclobutanecarboxamide] | < 10 nM |
| < 10 nM | 10 to 100 nM | – | – | – | – | – | – | COC(C)(C)C(=O)NC(=O)Nc1ccc(Oc2ccnc(-c3cnn(C)c3)c2)cn1 [Example 55, 2-methoxy-2-methyl-N-((5-((2-(1-methyl-1H-pyrazol-4-yl)pyridin-4-yl)oxy)pyridin-2-yl)carbamoyl)propanamide] | – |
| < 10 nM | < 10 nM | – | 100 to 1000 nM | > 1000 nM | – | – | – | Cn1cc(-c2cc(Oc3ccc(NC(=O)NC(=O)C4(C)CC4)nc3)ccn2)cn1 [Example 52, 1-methyl-N-((5-((2-(1-methyl-1H-pyrazol-4-yl)pyridin-4-yl)oxy)pyridin-2-yl)carbamoyl)cyclopropanecarboxamide] | – |
